Data published in patent US12540128B2, “Substituted pyridazinones as herbicides” (SYNGENTA CROP PROTECTION AG, priority 2019, dated 2026).

Assays:
Type in all cases: in vivo
Conditions in all cases: 250 g/ha, after 13 days
[1] = tested on: Ipomoea hederacea (IPOHE); assay: B3 Pre-Emergence Efficacy Test 1
Method: (§1) Seeds of a variety of test species were sown in standard soil in pots: Solanum nigrum (SOLNI), Amaranthus retoflexus (AMARE), Setaria faberi (SETFA), Echinochloa crus-galli (ECHCG), Ipomoea hederacea (IPOHE), Lolium perenne (LOLPE). After cultivation for one day (pre-emergence) under controlled conditions in a glasshouse (at 24/16° C., day/night; 14 hours light; 65% humidity), the plants were sprayed with an aqueous spray solution derived from the formulation of the technical active ingredient in acetone/water (50:50) solution containing 0.5% Tween 20 (polyoxyethelyene sorbitan monolaurate, CAS RN 9005-64-5). Compounds are applied at 250 g/ha. The test plants were then grown in a glasshouse under controlled conditions (at 24/16° C., day/night; 14 hours light; 65% humidity) and watered twice daily. After 13 days, the test is evaluated for the percentage damage caused to the plant. The biological activities are assessed on a five point scale (5=80-100%; 4=60-79%; 3=40-59%; 2=20-39%; 1=0-19%). A blank value in the table is indicative that the compound was not tested on that species.

[2] = tested on: Lolium perenne (LOLPE); assay: B3 Pre-Emergence Efficacy Test 1
Method: as §1

[3] = tested on: Amaranthus retoflexus (AMARE); assay: B3 Pre-Emergence Efficacy Test 1
Method: as §1

[4] = tested on: Solanum nigrum (SOLNI); assay: B3 Pre-Emergence Efficacy Test 1
Method: as §1

[5] = tested on: Setaria faberi (SETFA); assay: B3 Pre-Emergence Efficacy Test 1
Method: as §1

[6] = tested on: Echinochloa crus-galli (ECHCG); assay: B3 Pre-Emergence Efficacy Test 1
Method: as §1

[7] = tested on: Ipomoea hederacea (IPOHE); assay: B1 Post-Emergence Efficacy Test 1
Method: (§2) Seeds of a variety of test species are sown in standard soil in pots:— Solanum nigrum (SOLNI), Amaranthus retoflexus (AMARE), Setaria faberi (SETFA), Echinochloa crus-galli (ECHCG), Ipomoea hederacea (IPOHE), Lolium perenne (LOLPE). After 8 days cultivation (post-emergence) under controlled conditions in a glasshouse (at 24/16° C., day/night; 14 hours light; 65% humidity), the plants are sprayed with an aqueous spray solution derived from the formulation of the technical active ingredient in acetone/water (50:50) solution containing 0.5% Tween 20 (polyoxyethylene sorbitan monolaurate, CAS RN 9005-64-5). Compounds are applied at 250 g/ha. The test plants are then grown in a glasshouse under controlled conditions in a glasshouse (at 24/16° C., day/night; 14 hours light; 65% humidity) and watered twice daily. After 13 days, the test is evaluated for the percentage damage caused to the plant. The biological activities are assessed on a five point scale (5=80-100%; 4=60-79%; 3=40-59%; 2=20-39%; 1=0-19%). A blank value in the table is indicative that the compound was not tested on that species.

[8] = tested on: Lolium perenne (LOLPE); assay: B1 Post-Emergence Efficacy Test 1
Method: as §2

[9] = tested on: Amaranthus retoflexus (AMARE); assay: B1 Post-Emergence Efficacy Test 1
Method: as §2

[10] = tested on: Solanum nigrum (SOLNI); assay: B1 Post-Emergence Efficacy Test 1
Method: as §2

[11] = tested on: Setaria faberi (SETFA); assay: B1 Post-Emergence Efficacy Test 1
Method: as §2

[12] = tested on: Echinochloa crus-galli (ECHCG); assay: B1 Post-Emergence Efficacy Test 1
Method: as §2

| SMILES | percentage damage caused to the plant, five point scale, IPOHE [1] | percentage damage caused to the plant, five point scale, LOLPE [2] | percentage damage caused to the plant, five point scale, AMARE [3] | percentage damage caused to the plant, five point scale, SOLNI [4] | percentage damage caused to the plant, five point scale, SETFA [5] | percentage damage caused to the plant, five point scale, ECHCG [6] | percentage damage caused to the plant, five point scale, IPOHE [7] | percentage damage caused to the plant, five point scale, LOLPE [8] | percentage damage caused to the plant, five point scale, AMARE [9] | percentage damage caused to the plant, five point scale, SOLNI [10] | percentage damage caused to the plant, five point scale, SETFA [11] | percentage damage caused to the plant, five point scale, ECHCG [12] |
| --- | --- | --- | --- | --- | --- | --- | --- | --- | --- | --- | --- | --- |
| CCc1nc2ccc(CCc3c(Cl)ccc(F)c3-c3c(O)c(C)nn(C)c3=O)cc2o1 [Compound 1.028] | 5 (5=80-100%) | 5 (5=80-100%) | 5 (5=80-100%) | 5 (5=80-100%) | 5 (5=80-100%) | 1 (1=0-19%) | 5 (5=80-100%) | 5 (5=80-100%) | 5 (5=80-100%) | 5 (5=80-100%) | 5 (5=80-100%) | 5 (5=80-100%) |
| Cc1ccc2cc(CCc3c(Cl)ccc(F)c3-c3c(OC(=O)C(C)C)c(C)nn(C)c3=O)ccc2n1 [Compound 3.034, [5-[3-chloro-6-fluoro-2-[2-(2-methyl-6-quinolyl)ethyl]phenyl]-1,3-dimethyl-6-oxo-pyridazin-4-yl] 2-methylpropanoate] | 2 (2=20-39%) | 5 (5=80-100%) | 5 (5=80-100%) | 5 (5=80-100%) | 5 (5=80-100%) | 5 (5=80-100%) | 4 (4=60-79%) | 5 (5=80-100%) | 4 (4=60-79%) | 5 (5=80-100%) | 5 (5=80-100%) | 4 (4=60-79%) |
| Cc1nn(C)c(=O)c(-c2c(F)ccc(Cl)c2/C=C/c2ccc3c(c2)OC(F)(F)O3)c1OC(=O)C(C)C [Compound 4.342] | 1 (1=0-19%) | 0 | 1 (1=0-19%) | 3 (3=40-59%) | 0 | 0 | 3 (3=40-59%) | 2 (2=20-39%) | 0 | 4 (4=60-79%) | 1 (1=0-19%) | 1 (1=0-19%) |
| Cc1nn(C)c(=O)c(-c2c(F)ccc(Cl)c2CCc2ccc3c(c2)CCC(C)N3)c1OC(=O)C(C)C (centres unmarked) [Compound 3.030, [5-[3-chloro-6-fluoro-2-[2-(2-methyl-1,2,3,4-tetrahydroquinolin-6-yl)ethyl]phenyl]-1,3-dimethyl-6-oxo-pyridazin-4-yl] 2-methylpropanoate] | 5 (5=80-100%) | 5 (5=80-100%) | 5 (5=80-100%) | 5 (5=80-100%) | 5 (5=80-100%) | 5 (5=80-100%) | 5 (5=80-100%) | 5 (5=80-100%) | 5 (5=80-100%) | 5 (5=80-100%) | 5 (5=80-100%) | 5 (5=80-100%) |
| Cc1nn(C)c(=O)c(-c2c(F)ccc(Cl)c2CCc2cc(C(F)(F)F)nc3ccccc23)c1O [Compound 1.027] | 3 (3=40-59%) | 3 (3=40-59%) | 1 (1=0-19%) | 4 (4=60-79%) | 1 (1=0-19%) | 3 (3=40-59%) | 5 (5=80-100%) | 4 (4=60-79%) | 2 (2=20-39%) | – | 4 (4=60-79%) | 4 (4=60-79%) |
| Cc1nn(C)c(=O)c(-c2c(F)ccc(Cl)c2CCc2ccnc3ccccc23)c1O [Compound 1.036] | 5 (5=80-100%) | 5 (5=80-100%) | 5 (5=80-100%) | 5 (5=80-100%) | 5 (5=80-100%) | 5 (5=80-100%) | 5 (5=80-100%) | 5 (5=80-100%) | 5 (5=80-100%) | 5 (5=80-100%) | 5 (5=80-100%) | 5 (5=80-100%) |
| Cc1nn(C)c(=O)c(-c2c(F)ccc(Cl)c2CCc2ccc3c(c2)CCCN3)c1O [Compound 1.019] | 1 (1=0-19%) | 3 (3=40-59%) | 5 (5=80-100%) | 5 (5=80-100%) | 4 (4=60-79%) | 1 (1=0-19%) | 5 (5=80-100%) | 5 (5=80-100%) | 4 (4=60-79%) | 5 (5=80-100%) | 5 (5=80-100%) | 3 (3=40-59%) |
